Here are results for two compounds from patent US7732412B2, “Methods of treatment using novel LHRH antagonists having improved solubility properties” (Zentaris GmbH, priority 1999, dated 2010).

Each structure is given as a SMILES string. Numbered stars: 1 amine (or outer) side, 2 acyl side, 3 side chain; on linkers, the order of the positions; unused ones are H or OH. Square brackets hold non-standard residues; d marks the D form. Side chains are listed from the residue outwards. Peptide text beside a SMILES is read from it. * marks the point of attachment. NH(4-amidinophenyl) = N=C(N)c1ccc(N*)cc1; dPhe(4-Cl) = N[C@H](Cc1ccc(Cl)cc1)C(=O)O; d2Nal = N[C@H](Cc1ccc2ccccc2c1)C(=O)O; d(hCit) = NC(=O)NCCCC[C@@H](N)C(=O)O; Lys(iPr) = CC(C)NCCCC[C@H](N)C(=O)O; NMeY = CN[C@@H](Cc1ccc(O)cc1)C(=O)O; d3Pal = N[C@H](Cc1cccnc1)C(=O)O; Suc = O=C(CCC(=O)[*:2])[*:1]; Nle = CCCC[C@H](N)C(=O)O

Experiment [1] has as its system patients who suffer from prostate carcinoma. Description: first clinical trial in prostate carcinoma, 14 patients, testosterone and PSA. The experiment is classed as in vivo, human. The procedure:
(§1) The following data are derived from two clinical studies comprising 14 and 13 patients, respectively, who suffer from prostate carcinoma and who were treated with the compound of the invention having the formula: Ac-D-Nal(2)^1-D-Cpa^2-D-Pal(3)^3-Ser^4-N-Me-Tyr^5-D-Hci^6-Nle^7-Arg^8-Pro^9-D-Ala^10-NH2 (Ozarelix)
In the first clinical trial, patients were given i.m. injections of 65 mg Ozarelix on day 1 followed by another 65 mg i.m. injection on day 2. Patients were re-treated after a waiting period of 4 weeks. This 4 week period of treatment is referred to as a treatment “cycle”. Accordingly, dosage of 130 mg of Ozarelix was provided to the patients in the first four week cycle of treatment (Cycle 1).
Six out of these 14 patients were subsequently administered 65 mg Ozarelix per i.m. injection on day 29 and day 30 each, whereas the other eight patients only received 65 mg Ozarelix on day 29 (Cycle 2). This schedule was repeated on day 57/58 accordingly (Cycle 3).
As for the administration days, testosterone levels were always determined before application of ozarelix to the patients. In addition, mean change of Prostate Specific Antigen (PSA) levels were monitored 4-weekly over a period of 12 weeks. The percent change of PSA shown is the mean value for all treated patients and refers to the normalized individual baseline PSA levels before first Ozarelix administration.

Experiment [2] has the same test system. Description: second clinical trial in prostate carcinoma, 13 patients, testosterone. The experiment is classed as in vivo, human. The method, then:
as §1
In the second clinical trial patients were given a single im. injection of 130 mg Ozarelix on day 1. Patients were re-treated after a waiting period of 4 weeks, and this 4 week period is considered as a treatment “Cycle”. Accordingly, dosage of 130 mg of Ozarelix was again provided to the patients in the first four week cycle of treatment (Cycle 1).
Seven out of these 13 patients were subsequently administered 130 mg Ozarelix per i.m. injection on day 29, whereas the other six patients received 100 mg Ozarelix on day 29 (Cycle 2). This schedule was repeated on day 57 accordingly (Cycle 3).
As for the administration days, testosterone levels were always determined before application of Ozarelix to the patients.

The target in experiment [3] is T1, human LHRH receptor (Homo sapiens, UniProt P30968).
T1 sequence (P30968 1-328): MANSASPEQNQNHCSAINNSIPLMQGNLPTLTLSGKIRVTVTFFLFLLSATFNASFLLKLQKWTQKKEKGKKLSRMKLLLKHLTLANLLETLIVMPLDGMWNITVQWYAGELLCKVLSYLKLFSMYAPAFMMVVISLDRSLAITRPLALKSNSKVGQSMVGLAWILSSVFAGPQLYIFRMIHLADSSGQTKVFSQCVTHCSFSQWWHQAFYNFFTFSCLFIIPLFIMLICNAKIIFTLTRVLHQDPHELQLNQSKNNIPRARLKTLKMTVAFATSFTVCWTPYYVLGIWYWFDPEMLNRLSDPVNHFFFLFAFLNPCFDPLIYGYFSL
Description: functional assay for antagonistic activity, fos-Luc luciferase reporter gene, stimulation with 1 nM [D-Trp6] LHRH. The experiment is classed as cell-based. Also noted: expressed in transfected cells. As to conditions: cells stimulated with 1 nM [D-Trp6] LHRH for 6 h; bracket = number of independent experiments. The method, then:
The assay for the functional characterization of antagonistic analogs of LH-RH was carried out, with some modifications, as described in Beckers et al., “Characterization of gonadotropin-releasing hormone analogs based on a sensitive cellular luciferase reporter gene assay” (1997) Analyt. Biochem. 251, 17-23. The assay uses a reporter gene made by fusing the c-fos immediate-early gene promoter to a DNA sequence encoding luciferase (Luc). A recombinant cell line that expresses the human LH-RH. receptor is stably transfected with the fos-Luc reporter gene. Transcription of the fos-Luc fusion gene and synthesis of the Luc protein is induced in the cells in a dose-dependent manner by LH-RH and other LH-RH agonists that bind and signal through the human LH-RH receptor. Peptide LH-RH antagonists such as the compounds of the invention bind to cellular LH-RH receptors and inhibit this stimulation. The antagonistic potency (IC50) of peptide LH-RH antagonists as determined by the assay generally correlates well with the binding affinity (KD) of the LH-RH antagonists for LH-RH receptor as determined from ligand binding experiments.
Cells containing the fos-Luc reporter gene that express the human LH-RH receptor were cultured for 24 h in microtitre plates using DMEM with additives and 1% (v:v) FCS (10,000 cells per well). The cells were then stimulated with 1 nM [D-Trp^6] LHRH for 6 h. Peptide LH-RH antagonist compounds according to the invention were added before the stimulation, and the cells were lysed at the end for quantification of the cellular Luc activity. The calculation of the IC50 values from dose-effect curves was carried out by non-linear regression analysis using the Hill model (Programme EDX 2.0 from C. Grunwald, Arzneimittelwerk Dresden).
The quantification of the Luc activity was carried out in duplicate essentially as described (Promega Technical Bulletins #101/161) using the respective luciferase assay system (Promega E4030). Owing to addition of coenzyme A (CoA), an oxidation of luciferyl-CoA takes place with advantageous kinetics. After the removal of the culture medium from the microtitre plate, the cells were lysed by addition of 100 μl of lysis buffer (25 mM tris-phosphate pH 7.8, 2 mM dithiothreitol, 2 mM 1,2-diaminocyclohexane-N,N,N′,N′-tetraacetic acid (CDTA), 10% (v:v) glycerol, 1% (v:v) Triton X-100). After incubation at room temperature for 15 min, 10 μl of cell lysate were transferred into a white microtitre plate suitable for luminometric detection (Dynatech). The enzymatic reaction was initiated by addition of 50 μl of assay buffer (20 mM tricine pH 7.8, 1.07 mM (MgCO3)4Mg(OH)2, 2.67 mM MgSO4, 0.1 mM ethylene-diaminetetraacetic acid (EDTA), 33.3 mM dithiothreitol, 270 μM coenzyme A, 470 μM glow-worm (Photinus pyralis) luciferin, 530 μM rATPNa2). After one minute, the luminescence was determined for a total time of one second with a signal half-life of five minutes using the EG&G Berthold MicroLumat LB 96 P.

Experiment [4] concerns the target T1, human LHRH receptor. Description: receptor binding assay, displacement of [125I]-cetrorelix on intact cells. Conditions: LTK cells expressing human LHRH receptor, 1 h at 37° C.; bracket = number of independent experiments; read-out: KD (binding affinity). Also noted: expressed in transfected cells; host or cells: LTK cells (stably transfected), intact cells. An excerpt: The compounds according to formula I of the invention were investigated for their receptor binding. The assay method closely followed the process described in Beckers et al., “Selection and characterization of mammalian cell lines with stable overexpression of human pituitary receptors for gonadoliberin (GnRH)” (1995) Eur. J. Biochem., 231, 535-543. Cetrorelix obtained according to the synthesis disclosed above was iodinated with [^125I] (Amersham; specific activity 80.5 Bq/fmol) using the IodoGen reagent (Pierce). The reaction mixture was purified by reverse-phase high-performance liquid chromatography with exchanged phases, monoiodinated cetrorelix being obtained without unlabelled peptide. In each case, about 80% of the [^125I]-cetrorelix was capable of specific receptor association.
The receptor binding assay was carried out under physiological conditions as described (Beckers et al., 1995) using intact cells. Subconfluent cultures of stably transfected LTK cells, which express the human LHRH receptor, were separated off by incubation in NaCl/Pi (137 mM NaCl, 2.7 mM KCl, 8.1 mM Na2HPO4, […])/1 mM EDTA and collected by centrifugation. The cell pellet was resuspended in binding buffer (DMEM without H2CO3, with 4.5 g/l of glucose, 10 mM Hepes pH 7.5, 0.5% (mass/volume) BSA, 1 g/l bacitracin, 0.1 g/l SBTI, 0.1% (mass/volume) NaN3). For displacement assays, 0.25×10^6 cells/100 μl were incubated with approximately 225 pM of the [^125I]-cetrorelix (specific activity 5-10×10^5 dpm/pmol) and various concentrations of unlabelled compound according to the invention as competitor. The cell suspension in 100 μl of binding medium was layered in 400 μl assay tubes over 200 μl of 84% by volume silicone oil (Merck Type 550)/16% by volume paraffin oil. […] Cell pellet and supernatants were then analysed by counting the y radiation. The amount of non-specifically bound material was determined at a final concentration of 1 μM with inclusion of unlabelled cetrorelix and was typically ≦10% of the total bound material. […]
(In general: In a radioligand displacement assay an active substance lowers the binding of a labelled ligand.)

`CCCC[C@H](NC(=O)[C@@H](CCCCNC(N)=O)NC(=O)[C@H](Cc1ccc(O)cc1)N(C)C(=O)[C@H](CO)NC(=O)[C@@H](Cc1cccnc1)NC(=O)[C@@H](Cc1ccc(Cl)cc1)NC(=O)[C@@H](Cc1ccc2ccccc2c1)NC(C)=O)C(=O)N[C@@H](CCCNC(=N)N)C(=O)N1CCC[C@H]1C(=O)N[C@H](C)C(N)=O` [Example 1, Ac-D-Nal(2)^1-D-Cpa^2-D-Pal(3)^3-Ser^4-N-Me-Tyr^5-D-Hci^6-Nle^7-Arg^8-Pro^9-D-Ala^10-NH2] (Ac-[d2Nal][dPhe(4-Cl)][d3Pal]S[NMeY][d(hCit)][Nle]RP[dA]-NH2): the “PSA levels over the monitoring period” value in experiment [1] (12 weeks, first trial) is “significantly reduced”. For the same compound, the “Testosterone (mean)” value is listed as 0.6 ng/mL in experiment [1] (Day 2, 65 mg i.m. on day 1 and 2, re-treated day 29(/30) and 57(/58), pre-dose day 1 4.4 ng/mL); 0.3 ng/mL in experiment [1] (Day 3, first trial, 65 mg i.m. on day 1 and 2); 0.2 ng/mL in experiment [1] (Day 8, first trial); 0.1 ng/mL in experiment [1] (Day 15, first trial); 0.1 ng/mL in experiment [1] (Day 22, first trial); 0.2 ng/mL in experiment [1] (Day 29, before application, first trial). Also, the “Testosterone (mean)” value in experiment [1] (Day 36, first trial) came to 0.1 ng/mL; in experiment [1] (Day 43, first trial), 0.1 ng/mL; in experiment [1] (Day 50, first trial), 0.1 ng/mL; in experiment [1] (Day 57, before application, first trial), 0.1 ng/mL; in experiment [1] (Day 64, first trial) it was 0.1 ng/mL; in experiment [1] (Day 71, first trial), 0.1 ng/mL. The “Testosterone (mean)” value worked out at 0.1 ng/mL in experiment [1] (Day 78, first trial); 0.3 ng/mL in experiment [1] (Day 85, first trial); 0.4 ng/mL in experiment [2] (Day 2, single 130 mg i.m. on day 1, re-treated day 29 and 57 (130 or 100 mg), pre-dose day 1 3.9 ng/mL); 0.3 ng/mL in experiment [2] (Day 3, second trial, 130 mg i.m. on day 1); 0.1 ng/mL in experiment [2] (Day 8, second trial); 0.1 ng/mL in experiment [2] (Day 15, second trial). Further, the “Testosterone (mean)” value in experiment [2] (Day 22, second trial) is on record as 0.1 ng/mL; in experiment [2] (Day 29, before application, second trial), 0.2 ng/mL; in experiment [2] (Day 36, second trial), 0.1 ng/mL; in experiment [2] (Day 43, second trial), 0.1 ng/mL; in experiment [2] (Day 50, second trial), 0.1 ng/mL; in experiment [2] (Day 57, before application, second trial), 0.2 ng/mL. The “Testosterone (mean)” value in experiment [2] (Day 64, second trial) stood at 0.1 ng/mL; in experiment [2] (Day 71, second trial), 0.1 ng/mL; in experiment [2] (Day 78, second trial), 0.1 ng/mL; in experiment [2] (Day 85, second trial) it was 0.3 ng/mL. Moreover, the “PSA [% change] (mean, versus individual baseline)” value in experiment [1] (Day 29, first trial) was −77 % change; in experiment [1] (Day 57, first trial) it was −88 % change; in experiment [1] (Day 85, first trial), −89 % change. Also, the “testosterone values of all patients” value is below 0.5 ng/mL in experiment [1] (afterwards (after day 3), first trial) and below 0.5 ng/mL in experiment [2] (afterwards (after day 3), second trial). The “treated patients hormonally castrated (testosterone <0.5 ng/mL)” value in experiment [1] (day 2 (24 hours post-dose), first trial) turned out to be 57%; in experiment [1] (day 3 (48 hours post-dose), first trial), 79%; in experiment [2] (day 2 (24 hours post-dose), second trial), 69%; in experiment [2] (day 3 (48 hours post-dose), second trial), 100%. The same compound had an IC50 on human LHRH receptor [3] of 0.242 nM.
Compound `CC(=O)N[C@H](Cc1ccc2ccccc2c1)C(=O)N[C@H](Cc1ccc(Cl)cc1)C(=O)N[C@H](Cc1cccnc1)C(=O)N[C@@H](CO)C(=O)N(C)[C@@H](Cc1ccc(O)cc1)C(=O)N[C@H](CCCCNC(=O)CCC(=O)Nc1ccc(C(=N)N)cc1)C(=O)N[C@@H](CC(C)C)C(=O)N[C@@H](CCCCNC(C)C)C(=O)N1CCC[C@H]1C(=O)N[C@H](C)C(N)=O` [Example 2, Ac-D-Nal(2)^1-D-Cpa^2-D-Pal(3)^3-Ser^4-N-Me-Tyr^5-D-Lys(B)^6-Leu^7-Lys(iPr)^8-Pro^9-D-Ala^10-NH2] (Ac-[d2Nal][dPhe(4-Cl)][d3Pal]S[NMeY][dK]([Suc-NH(4-amidinophenyl)])L[Lys(iPr)]P[dA]-NH2) yielded an IC50 on human LHRH receptor [3] of 0.684 nM. Further, on human LHRH receptor [4], the Kd is 0.181 nM.

What is called IC50 is the concentration that gives 50% inhibition. One may read the Kd as a measure of binding affinity in units of concentration.
